Assay results: publication PMC7007950, “Farrerol Directly Targets GSK-3β to Activate Nrf2-ARE Pathway and Protect EA.hy926 Cells against Oxidative Stress-Induced Injuries” (Oxidative Medicine and Cellular Longevity, 2020)
pKd: −log10 of the molar value.

Target: T1, glycogen synthase kinase 3β (GSK-3β) (Homo sapiens, UniProt P49841)
T1 construct: gene GSK3B; recombinant His-tagged GSK-3β
Experiment: BLI on immobilized GSK-3β; also DARTS in lysate and Kinase-Glo inhibition (IC50 […])
Assay type: binding

T1 sequence (P49841 whole entry): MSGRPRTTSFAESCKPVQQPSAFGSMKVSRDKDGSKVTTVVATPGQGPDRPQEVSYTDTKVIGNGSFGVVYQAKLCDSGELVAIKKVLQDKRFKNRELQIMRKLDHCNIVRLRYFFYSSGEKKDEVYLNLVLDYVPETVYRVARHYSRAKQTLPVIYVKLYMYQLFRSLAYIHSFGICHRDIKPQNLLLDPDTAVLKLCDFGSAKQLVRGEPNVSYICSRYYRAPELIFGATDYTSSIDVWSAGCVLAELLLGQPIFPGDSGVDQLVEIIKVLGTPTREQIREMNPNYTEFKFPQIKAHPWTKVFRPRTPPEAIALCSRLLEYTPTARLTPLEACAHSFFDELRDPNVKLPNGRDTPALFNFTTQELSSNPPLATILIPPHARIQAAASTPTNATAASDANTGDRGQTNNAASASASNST

Cc1c(O)c(C)c2c(c1O)C(=O)C[C@@H](c1ccc(O)cc1)O2 [farrerol]
pKd: 3.20
